Measurements reported in BindingDB's records for doi:10.1016/j.bioorg.2016.12.009 (Universiti Teknologi Mara (Uitm), 2017).

Target: Alpha-glucosidase MAL12 (Saccharomyces cerevisiae (strain ATCC 204508 / S288c), UniProt P53341)
Assay: Baker's Yeast α-Glucosidase Inhibition Assay
Details: pH 6.8; 37 °C
Experimental: The enzyme inhibition was evaluated according to the method previously reported by Zawawi et al. [Zawawi et al., Bioorg. Chem., 23:3119] with slight modification. Various concentration of test compounds (10 μL) were dissolved in DMSO (ranging from 200 to 6.25 μg/mL) and premixed with 95 μL of 50 mM phosphate buffer (pH 6.8). Then, 25 μL of enzyme (0.0625 U/mL) in phosphate buffer saline was added into each well and the plate was incubated at 37 °C for 10 min. Afterward, 25 μl of PNPG in phosphate buffer saline (5 mM) were added and pre-read of the plate was taken by using a microplate reader (Spectrostar Nano BMG Labtech, Germany). The reaction mixture was then incubated at 37 °C for 30 min and change in absorbance at 405 nm was monitored up to 30 min. For negative control, the test samples were replaced with 10 μL of DMSO and acarbose was used as positive control. All experiments were triplicated and the results were expressed as the mean ± S.E.M of three determinations.

Alpha-glucosidase MAL12, sequence (P53341 whole entry): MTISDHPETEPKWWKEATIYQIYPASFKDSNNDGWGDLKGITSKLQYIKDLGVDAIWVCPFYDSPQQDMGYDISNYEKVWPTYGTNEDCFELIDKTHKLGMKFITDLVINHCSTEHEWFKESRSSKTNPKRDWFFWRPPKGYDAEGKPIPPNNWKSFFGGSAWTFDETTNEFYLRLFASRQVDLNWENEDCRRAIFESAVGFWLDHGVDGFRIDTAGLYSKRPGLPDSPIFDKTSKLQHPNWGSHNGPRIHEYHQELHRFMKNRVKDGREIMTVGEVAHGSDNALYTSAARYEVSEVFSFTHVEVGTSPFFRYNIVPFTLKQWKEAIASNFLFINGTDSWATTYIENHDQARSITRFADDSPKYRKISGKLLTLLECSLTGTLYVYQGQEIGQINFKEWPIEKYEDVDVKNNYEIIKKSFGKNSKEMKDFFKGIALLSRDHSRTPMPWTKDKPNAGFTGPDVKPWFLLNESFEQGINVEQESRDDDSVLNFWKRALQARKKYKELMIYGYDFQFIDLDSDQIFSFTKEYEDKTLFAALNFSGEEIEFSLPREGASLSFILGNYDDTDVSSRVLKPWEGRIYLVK

Point of comparison: `Cc1cc2nc(-c3ccc(C(=O)NNC(=S)Nc4ccc(Cl)cc4)cc3)[nH]c2cc1C` [N-(4-chlorophenyl)-2-(4-(5,6-dimethyl-1H-benzo[d]imidazol-2-yl)benzoyl)hydrazinecarbothioamide (11)], IC50 187 µM. Against it:
- Cc1cc2nc(-c3ccc(C(=O)NNC(=S)Nc4ccc(C(F)(F)F)cc4)cc3)[nH]c2cc1C [2-(4-(5,6-Dimethyl-1H-benzo[d]imidazol-2-yl)benzoyl)-N-(4(trifluoromethyl)phenyl)hydrazinecarbothioamide (15)] — within 1.5-fold, 163 µM
- Cc1cc2nc(-c3ccc(C(=O)NNC(=S)Nc4cccc(Br)c4)cc3)[nH]c2cc1C [N-(3-bromophenyl)-2-(4-(5,6-dimethyl-1H-benzo[d]imidazol-2-yl)benzoyl)hydrazinecarbothioamide (6)] — within 1.5-fold, 178 µM
- Cc1ccc(NC(=S)NNC(=O)c2ccc(-c3nc4cc(C)c(C)cc4[nH]3)cc2)cc1 [2-(4-(5,6-Dimethyl-1H-benzo[d]imidazol-2-yl)benzoyl)-N-(p-tolyl)hydrazinecarbothioamide (17)] — 1.6-fold higher, 298 µM
- COc1ccccc1NC(=S)NNC(=O)c1ccc(-c2nc3cc(C)c(C)cc3[nH]2)cc1 [2-(4-(5,6-Dimethyl-1H-benzo[d]imidazol-2-yl)benzoyl)-N-(2-methoxyphenyl)hydrazinecarbothioamide (4)] — 1.9-fold higher, 346 µM
- Cc1cccc(NC(=S)NNC(=O)c2ccc(-c3nc4cc(C)c(C)cc4[nH]3)cc2)c1 [2-(4-(5,6-Dimethyl-1H-benzo[d]imidazol-2-yl)benzoyl)-N-(m-tolyl)hydrazinecarbothioamide (16)] — within 1.5-fold, 219 µM
- Cc1cc2nc(-c3ccc(C(=O)NNC(=S)Nc4ccccc4Br)cc3)[nH]c2cc1C [N-(2-bromophenyl)-2-(4-(5,6-dimethyl-1H-benzo[d]imidazol-2-yl)benzoyl)hydrazinecarbothioamide (1)] — within 1.5-fold, 129 µM
- Cc1cc2nc(-c3ccc(C(=O)NNC(=S)Nc4ccc(Br)cc4)cc3)[nH]c2cc1C [N-(4-bromophenyl)-2-(4-(5,6-dimethyl-1H-benzo[d]imidazol-2-yl)benzoyl)hydrazinecarbothioamide (10)] — 3.7-fold lower, 50.6 µM
- Cc1cc2nc(-c3ccc(C(=O)NNC(=S)Nc4ccc([N+](=O)[O-])cc4)cc3)[nH]c2cc1C [2-(4-(5,6-Dimethyl-1H-benzo[d]imidazol-2-yl)benzoyl)-N-(4-nitrophenyl)hydrazinecarbothioamide (14)] — 5.2-fold lower, 35.8 µM
- Cc1cc2nc(-c3ccc(C(=O)NNC(=S)Nc4ccc(F)cc4)cc3)[nH]c2cc1C [2-(4-(5,6-Dimethyl-1H-benzo[d]imidazol-2-yl)benzoyl)-N-(4-fluorophenyl)hydrazinecarbothioamide (12)] — within 1.5-fold, 277 µM
- COc1cccc(NC(=S)NNC(=O)c2ccc(-c3nc4cc(C)c(C)cc4[nH]3)cc2)c1 [2-(4-(5,6-Dimethyl-1H-benzo[d]imidazol-2-yl)benzoyl)-N-(3-methoxyphenyl)hydrazinecarbothioamide (8)] — 2.6-fold lower, 71.8 µM
- COc1ccc(NC(=S)NNC(=O)c2ccc(-c3nc4cc(C)c(C)cc4[nH]3)cc2)cc1 [2-(4-(5,6-Dimethyl-1H-benzo[d]imidazol-2-yl)benzoyl)-N-(4-methoxyphenyl)hydrazinecarbothioamide (13)] — 1.6-fold higher, 305 µM
- Cc1cc2nc(-c3ccc(C(=O)NNC(=S)Nc4ccccc4F)cc3)[nH]c2cc1C [2-(4-(5,6-dimethyl-1H-benzo[d]imidazol-2-yl)benzoyl)-N-(2-fluorophenyl)hydrazinecarbothioamide (3)] — within 1.5-fold, 231 µM
- Cc1cc2nc(-c3ccc(C(=O)NNC(=S)Nc4ccccc4Cl)cc3)[nH]c2cc1C [N-(2-chlorophenyl)-2-(4-(5,6-dimethyl-1H-benzo[d]imidazol-2-yl)benzoyl)hydrazinecarbothioamide (2)] — 1.5-fold higher, 284 µM
- Cc1cc2nc(-c3ccc(C(=O)NNC(=S)Nc4ccc(Cl)c(Cl)c4)cc3)[nH]c2cc1C [N-(3,4-dichlorophenyl)-2-(4-(5,6-dimethyl-1H-benzo[d]imidazol-2-yl)benzoyl)hydrazinecarbothioamide (5)] — 3-fold lower, 61.9 µM
- Cc1cc2nc(-c3ccc(C(=O)NNC(=S)Nc4cccc([N+](=O)[O-])c4)cc3)[nH]c2cc1C [2-(4-(5,6-Dimethyl-1H-benzo[d]imidazol-2-yl)benzoyl)-N-(3-nitrophenyl)hydrazinecarbothioamide (9)] — 1.6-fold lower, 117 µM
- Cc1cc2nc(-c3ccc(C(=O)NNC(=S)Nc4cccc(F)c4)cc3)[nH]c2cc1C [2-(4-(5,6-Dimethyl-1H-benzo[d]imidazol-2-yl)benzoyl)-N-(3-fluorophenyl)hydrazinecarbothioamide (7)] — within 1.5-fold, 247 µM
